Patent publication US20110177002A1, “CYLIC POLYAMINES FOR BINDING PHOSPHATIDYLSERINE” (BAYER SCHERING PHARMA AKTIENGESELLSCHAFT, priority 2008, published 2011)

Columns and labels:
[1] = test system: staurosporine treated Jurkat cells; experiment: FACS flow cytometry, apoptosis detection on staurosporine treated Jurkat cells with propidium iodide discrimination; format: cell-based; settings: for labeling pattern in direct comparison with Annexin-V: apoptosis induced Jurkat cells, co-incubation, FIG. 10
Excerpt: Flow cytometry is a technology for counting and examining cells which pass in a flow of single cells through a laser beam. The laser light scatter provides information about cell features. The forward scatter (FSC) depends basically on the size of the cell, whereas the side scatter (SSC) is used to measure the granularity of the cell. Furthermore, if the cells carry fluorescence dyes, the respective fluorescence signal can be detected.
Flow cytometry is a widely applied technique in cell biology. Especially in the research of cell death mechanisms it is a standard procedure to count and differentiate between apoptotic, necrotic and healthy cells. For the detection of apoptosis the protein Annexin V is applied which is usually attached to a green fluorescence dye. Because Annexin V can also bind to necrotic cells, the red fluorescent nuclear stain propidium iodide is simultaneously applied as a necrosis marker.
The resulting fluorescence diagrams that are obtained from a flow cytometry procedure with Annexin V and propidium iodide are shown below. The detection channel for green fluorescence is termed FL-I (FIG. 4), the one for red fluorescence FL-III (FIG. 4). The plot of cell number (counts) versus FL-I intensity is called histogram. The fluorescence signal of the sample is always accompanied by a second signal at low intensities (left in the histogram) which is background fluorescence. By plotting the red fluorescence versus the green fluorescence (FL-I/FL-III-plot) a diagram is obtained in which the cells can be divided into red, green and red+green fluorescent cells. After gating the signals into four quadrant regions (Q1-Q4) (FIG. 4), the percentages of the differently stained cells is indicated in the diagram.
FACS measurements were performed with a DAKO Galaxy Flow Cytometry System using the following experimental setup: Jurkat-cells were grown to a density of about 1*10^6 cells/ml. Apoptosis was induced by adding 1 μmol/l staurosporine (Stepczynska A et al, Staurosporine and conventional anticancer drugs induce overlapping, yet distinct pathways of apoptosis and caspase activation, Oncogene (2001) 20, 1193). After incubation for 4 h at 37° C., the cells were washed with cold PBS-buffer (140 mmol/l NaCl, 10 mmol/l KCl, 6.4 mmol/l Na2HPO4, 2 mmol/l KH2PO4) and resuspended in cold TES-buffer (5 mmol/l TES, 145 mmol/l NaCl). 10^6 cells in 100 μl buffer with 1 μl of a 0.5 mmol/l aqueous solution of complex 1 were incubated for 15 minutes at 37° C. Subsequently, cells were washed twice with 500 μl TES-buffer and the cells were resuspended in 400 μl TES-buffer. 100 μl of the probe were diluted with 900 μl of buffer and measured immediately. To discriminate against necroses, 10 μl propidiumiodide solution (250 μg/ml) were added directly before the measurement.

apoptotic liver = experiment: Biodistribution after induction of hepatic apoptosis with Cycloheximid; format: in vivo, male Balb/c mice; settings: i.v., 3.5 h after induction of hepatic apoptosis
Protocol: The biodistribution was performed in male Balb/c mice (6-8 weeks, body weight approx. 20 g). Hepatic apoptosis were induced by intraperitoneal injection of Cycloheximid ([…] in 500 μL PBS) (J. F. Tait, C. Smith, Z. Levashova, B. Patel, F. G. Blankenberg, J. Vanderheyden, J. Nucl. Med. 2006, 47, 1546). 1.5 h and 3.5 h after induction of hepatic apoptosis the 18F-labeled compound was injected i.v. (1-2 MBq in 100 μL PBS). The organ distribution was done after 30 min, 1 h, 2 h and 3 h. The amount of 18F-compound was determined by gamma counter.

[2] = test system: adenocarcinoma (Prostata) R3327-ATI; experiment: PET imaging in radiation tumor model; format: in vivo, Male Copenhagen rats; settings: day 6 and day 10 after 50 Gy radiation, i.v.
Excerpt: The PET images were obtained using a radiation model. Male Copenhagen rats with approx. 180 g body weight were transplanted with the hormone independent adenocarcinoma (Prostata) R3327-ATI on the left and right upper leg. The left tumor, as it reached a size of 3.5 cm^3 was radiated by linear particle accelerator with a single dosis of 50 Gy, whereas the right tumor served as control.
One day prior to the radiation as well as 6 and 10 d after radiation, the 18F-compound 19 (15-25 MBq in ca. 200 μL PBS) was injected i.v. and PET-aquisition with 1 h dynamic PET measurements were performed.

[3] = test system: Jurkat cells induced with staurosporin; experiment: Confocal microscopy on apoptosis induced Jurkat cells; format: cell-based; settings: 5 μM compound, 15 min at RT
Protocol: In order to verify the FACS data with visual data confocal microscopy was performed. Confocal microscopy was also performed on Jurkat cells and apoptosis was induced by incubating 10^6 cells/ml in 1 μM staurosporin for 4 h (Stepczynska A et al, Staurosporine and conventional anticancer drugs induce overlapping, yet distinct pathways of apoptosis and caspase activation Oncogene (2001) 20, 1193). The experiments were also carried out in TES-buffer. For compound binding 10^6 cells (either induced with staurosporin or non-induced) were incubated for 15 min at RT in 100 μl cold TES buffer with a final concentration of 5 μM compound, then the cells were fixed onto polylysine coated slides and shortly incubated with propidium iodine (PI).

[4] = Zn^2+ complexation; cited from earlier work
[5] = test system: cells which expose phosphatidylserine; settings: cited from earlier work

For `O=C(NCCOCCOCCOc1cc(COc2cc(CN3CCNCCNCCNCC3)cc(CN3CCNCCNCCNCC3)c2)cc(COc2cc(CN3CCNCCNCCNCC3)cc(CN3CCNCCNCCNCC3)c2)c1)c1ccc(-c2c3ccc(=O)cc-3oc3cc(O)ccc23)c(C(=O)O)c1` [compound we], the median fluorescence intensity ([1]; induced apoptotic Jurkat cells, FIG. 11) was 130 and the “effect of Zn^2+ complexation on binding” value ([1]; with versus without Zn^2+) was “same effect”.

For `[18F]CCOc1cc(CN2CCNCCNCCNCC2)cc(CN2CCNCCNCCNCC2)c1` [compound 19], the “time the liver signal was stable” value (apoptotic liver) was “more than 3 h”, the “accumulation in the apoptotic liver” value (apoptotic liver; as early as 30 min after injection) was “accumulation in the apoptotic liver” and the “accumulation in irradiated tumor in comparison to the control tumor (PET)” value [2] was “increase in accumulation”.

For `CCN(CC)c1ccc2c(-c3ccc(NC(=S)NCCOCCOCCOc4cc(CN5CCNCCNCCNCC5)cc(CN5CCNCCNCCNCC5)c4)cc3C(=O)O)c3ccc(=[N+](CC)CC)cc-3oc2c1` [compound AB], the “labeling pattern in direct comparison with Annexin-V” value [1] was “labeling apoptotic cells in Q2 and necrotic cells in Q4” and the “uptake / labeling of cells in confocal microscopy” value [3] was “labeling of apoptotic and necrotic cells”.

For `c1ccc(CNCc2ccccn2)nc1` [DPA, 2,2-dipicolylamine], the stability constant [4] is listed as 10^5 (mol/l)^−1.

In the case of “Anx V: phosphatidylserine-binding protein, fluorescent dye labeled, standard apoptosis sensor”, the “labeling pattern in direct comparison with Annexin-V” value [1] is reported as “labels apoptotic cells in Q1 and Q2”, the “% apoptosis (green)” value ([1]; staurosporine treated Jurkat cells, green fluorescence only) is reported as 22% and the “% necrosis (PI) (red)” value ([1]; staurosporine treated Jurkat cells, propidium iodide red only) is reported as 18%. For the same molecule, the “% necrosis/ late apoptosis (red + green)” value ([1]; staurosporine treated Jurkat cells, red + green) was 25%, the “uptake / labeling of cells in confocal microscopy” value [3] was “green membrane staining” and the Kd [5] was < 100 pM.
